Test results from PubChem BioAssay AID977605 (Broad Institute, 2014).
Calls of active or inactive are those of the source.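 The calls were made as follows: active = fitted curve reaches 40% activation below the top valid tested dose, in every test run; inconclusive = test runs disagree on the call; inactive = the rest, including effects opposite to the expected direction.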

Assay: endothelial E-selectin upregulation by compounds – imaging, HUVEC, cherry-picked samples, dose response (AID 977605);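 also: signal is the share of imaged cells scored positive for E-selectin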
Details: HUVEC E-selectin immunostaining, at 16 µM (top of the series), percent of TNF-alpha response over vehicle
With C[C@@H]1CN([C@H](C)CO)C(=O)c2cccc(NC(=O)c3ccncc3)c2O[C@@H]1CN(C)Cc1ccc(C(=O)Nc2ccccc2N)cc1 the activation was 4.83% (inactive).

Same assay, conditions: HUVEC E-selectin immunostaining, at 18 µM (top of the series), percent of TNF-alpha response over vehicle
With C[C@@H]1CN([C@H](C)CO)C(=O)Cc2cc(NC(=O)Cc3ccccc3)ccc2O[C@H]1CN(C)C(=O)Nc1cccc2ccccc12 the activation was 0.676% (inactive).

Same assay, conditions: HUVEC E-selectin immunostaining, at 19.5 µM (top of the series), percent of TNF-alpha response over vehicle
With COc1ccc(S(=O)(=O)N(C)C[C@@H]2Oc3ccc(NS(=O)(=O)c4c(C)noc4C)cc3C(=O)N([C@@H](C)CO)C[C@H]2C)cc1 the activation was -0.096% (inactive). In the case of C[C@@H]1CN([C@@H](C)CO)C(=O)c2cc(NS(=O)(=O)c3cccs3)ccc2O[C@@H]1CN(C)S(C)(=O)=O, the activation is reported as -0.005% (inactive). In the case of CC12CCC(=O)N1C(C(=O)Nc1cc(Cl)ccc1N1CCOCC1)CS2 (stereo not drawn), the activation is reported as -0.124% (inactive). With COc1ccccc1CC(Cc1nc2ccccc2[nH]1)c1nc2ccccc2[nH]1 (stereo not drawn) the activation was 0.165% (inactive). With N#Cc1cccnc1N1CCC(C(N)=O)CC1 the activation was 0.067% (inactive). With CN(CC(=O)Nc1ccccc1Br)C(=O)CNC(=O)C1CCCCC1 the activation was 0.383% (inactive). With CCCC#Cc1ccc2c(c1)O[C@@H](CN(C)S(=O)(=O)c1cccc(OC)c1)[C@@H](C)CN([C@@H](C)CO)S2(=O)=O the activation was 0.13% (inactive). With Cc1noc(C)c1NC(=O)N(C)C[C@H]1Oc2ccc(NS(=O)(=O)c3cccs3)cc2C(=O)N([C@H](C)CO)C[C@H]1C the activation was -0.05% (inactive). With Cc1ccc(COc2ccc(/C=N/O)cc2)cc1 the activation was -0.083% (inactive). In the case of CNC(=O)C[C@H]1CC[C@H]2[C@@H](COc3ccc(NC(=O)c4cccc(F)c4)cc3C(=O)N2C)O1, the activation is reported as 1.5% (inactive). With C[C@@H]1CN([C@H](C)CO)C(=O)Cc2cc(NS(=O)(=O)c3ccc(F)cc3)ccc2O[C@H]1CN(C)S(=O)(=O)c1ccc(Cl)cc1 the activation was 5.23% (inactive). In the case of C[C@@H]1CN([C@H](C)CO)C(=O)c2cc(NS(=O)(=O)c3cn(C)cn3)ccc2O[C@H]1CN(C)C(=O)Nc1ccc2c(c1)OCO2, the activation is reported as 0.041% (inactive). In the case of COc1ccc(CN(C)C[C@@H]2Oc3ccc(NC(=O)Nc4ccc(F)cc4)cc3CC(=O)N([C@H](C)CO)C[C@H]2C)cc1, the activation is reported as 0.445% (inactive). In the case of N#Cc1ccc(-c2csc(NC3=NCCCCC3)n2)cc1, the activation is reported as -0.002% (inactive). With Cc1noc(C)c1S(=O)(=O)Nc1ccc2c(c1)C(=O)N([C@@H](C)CO)C[C@@H](C)[C@@H](CN(C)Cc1ccc3c(c1)OCO3)O2 the activation was -0.115% (inactive). In the case of C[C@@H]1CN([C@H](C)CO)C(=O)c2cc(NC(=O)Cn3cnnn3)ccc2O[C@H]1CN(C)S(=O)(=O)c1ccccc1, the activation is reported as 0% (inactive). In the case of Cc1c(O)nc2ccccn2c1=O, the activation is reported as 0.171% (inactive). With C[C@@H]1CN([C@H](C)CO)C(=O)c2cc(NS(=O)(=O)c3cccs3)ccc2O[C@H]1CN(C)S(C)(=O)=O the activation was -0.143% (inactive). With C[C@@H]1CN([C@H](C)CO)C(=O)c2cccc(NC(=O)Nc3ccccc3)c2O[C@@H]1CN(C)S(=O)(=O)c1ccccc1 the activation was 0.268% (inactive). With C[C@@H]1CN([C@@H](C)CO)S(=O)(=O)c2ccc(C#Cc3ccccc3)cc2O[C@@H]1CN(C)CC1CC1 the activation was 0.541% (inactive). For COC(=O)CCCn1cc(CN2CC(N3CCN(Cc4ccccc4F)CC3)CS2(=O)=O)nn1 (stereo not drawn), the activation was -0.246% (inactive). In the case of CCCCc1c(C)nc2ccc(C)cc2c1SCCC(=O)O, the activation is reported as -0.168% (inactive). For Cc1ccc(SCc2cc(=O)n(C)[nH]2)cc1, the activation was 0.221% (inactive). For C[C@H]1CN([C@@H](C)CO)C(=O)c2cc(NC(=O)C3CCCCC3)ccc2O[C@H]1CN(C)Cc1ccc(C(=O)Nc2ccccc2N)cc1, the activation was 4.92% (inactive). In the case of CCCC#Cc1ccc2c(c1)O[C@@H](CN(C)C(=O)c1ccncc1)[C@H](C)CN([C@@H](C)CO)S2(=O)=O, the activation is reported as -0.24% (inactive). In the case of CC(=O)Nc1ccc(NC(=O)COc2ccc(Cl)cc2Cl)cc1, the activation is reported as -0.194% (inactive). With COc1ccc(CN(C)C[C@@H]2Oc3c(NC(=O)Nc4ccc(F)cc4)cccc3C(=O)N([C@@H](C)CO)C[C@H]2C)cc1 the activation was 8.09% (inactive). For C[C@@H]1CN([C@H](C)CO)C(=O)c2cccc(NS(=O)(=O)c3cccs3)c2O[C@H]1CN(C)Cc1ccc(Cl)c(Cl)c1, the activation was -0.024% (inactive). With CC(C)(C)S(=O)(=O)c1cnc(-c2cnccn2)nc1N the activation was -0.028% (inactive). In the case of C[C@H]1CN([C@@H](C)CO)C(=O)c2cc(NC(=O)CCCN(C)C)ccc2O[C@H]1CN(C)Cc1ccc(C(F)(F)F)cc1, the activation is reported as -0.127% (inactive). For CCn1c(SCC(=O)N(C)Cc2ccc(OC)c(F)c2)nc2cc(S(N)(=O)=O)ccc21, the activation was -0.113% (inactive). In the case of O=C(Nc1cc(C(F)(F)F)cc(C(F)(F)F)c1)Nc1cnn(-c2ccc([N+](=O)[O-])cc2)c1C(F)(F)F, the activation is reported as 0.091% (inactive). With COC(=O)c1ccc(CNC(=O)c2ccc(OC)c(S(=O)(=O)NC3CCCC3)c2)cc1 the activation was -0.105% (inactive). In the case of COc1ccc(OCC(O)CNC(=O)c2ccccc2)cc1 (stereo not drawn), the activation is reported as 4.38% (inactive). For CCOC(=O)C1(Cc2cccc(OC)c2)CCN(Cc2ccccc2)CC1, the activation was 0.067% (inactive). With Cc1noc(C)c1NC(=O)Nc1cccc2c1O[C@H](CN(C)CC1CCCCC1)[C@H](C)CN([C@@H](C)CO)C2=O the activation was 0.049% (inactive). For C[C@@H]1CN([C@@H](C)CO)C(=O)c2cc(C3=CCCCC3)cnc2O[C@H]1CN(C)C(=O)NC1CCCC1, the activation was -0.267% (inactive). With C[C@H]1CN([C@@H](C)CO)C(=O)c2cc(NC(=O)CCC(F)(F)F)ccc2O[C@@H]1CN(C)Cc1ccc(C(F)(F)F)cc1 the activation was 0.111% (inactive). In the case of Cc1cc(C)cc(NC(=O)Cc2ccc(NC3=NC4CS(=O)(=O)CC4S3)cc2)c1 (stereo not drawn), the activation is reported as 0.105% (inactive). With COc1ccc(S(=O)(=O)Nc2ccc3c(c2)C(=O)N([C@@H](C)CO)C[C@@H](C)[C@@H](CN(C)Cc2ccc(C(=O)Nc4ccccc4N)cc2)O3)cc1 the activation was 1.66% (inactive). For COc1ccc(S(=O)(=O)N(C)C[C@H]2Oc3ccc(NC(=O)Nc4c(C)noc4C)cc3C(=O)N([C@H](C)CO)C[C@H]2C)cc1, the activation was 0.58% (inactive). In the case of C[C@@H]1CN([C@@H](C)CO)C(=O)Cc2cc(NC(=O)c3ccncc3)ccc2O[C@H]1CN(C)Cc1ccc(Oc2ccccc2)cc1, the activation is reported as 0.031% (inactive). In the case of C[C@@H]1CN([C@@H](C)CO)C(=O)c2cc(NS(=O)(=O)c3cccs3)ccc2O[C@@H]1CN(C)C(=O)Nc1ccc2c(c1)OCO2, the activation is reported as -0.086% (inactive). With CCN(CC)CCN(C(=O)Cn1nnc(-c2ccc(C)o2)n1)C(C(=O)NC(C)(C)C)c1cccs1 (stereo not drawn) the activation was -0.044% (inactive). For C[C@@H]1CN([C@H](C)CO)C(=O)c2cc(C3=CCCC3)cnc2O[C@@H]1CN(C)C(=O)Nc1ccccc1, the activation was 0.119% (inactive). For COc1ccc(CN(C)C[C@@H]2Oc3ccc(N(C)C)cc3CC(=O)N([C@@H](C)CO)C[C@@H]2C)cc1, the activation was -0.012% (inactive). In the case of O=C(CN(CC1CCCO1)C(=O)CNS(=O)(=O)c1ccccc1)NCc1ccc(F)cc1 (stereo not drawn), the activation is reported as 1.46% (inactive). With Cc1cc(C(=O)Nc2cccc3c2O[C@@H](CN(C)S(=O)(=O)c2ccc(F)cc2)[C@@H](C)CN([C@H](C)CO)C3=O)n(C)n1 the activation was 0.077% (inactive). In the case of C[C@H](CO)N1C[C@H](C)[C@H](CN(C)Cc2ccncc2)Oc2ccc(NC(=O)CCC(F)(F)F)cc2CC1=O, the activation is reported as -0.107% (inactive). In the case of C[C@H](CO)N1C[C@H](C)[C@H](CN(C)Cc2ccc(Oc3ccccc3)cc2)Oc2c(NS(C)(=O)=O)cccc2C1=O, the activation is reported as 3.2% (inactive). For C[C@@H]1CN([C@@H](C)CO)C(=O)Cc2cc(NC(=O)NC3CCCCC3)ccc2O[C@H]1CN(C)C(=O)Nc1ccc2c(c1)OCO2, the activation was 16.7% (inactive). In the case of C[C@@H]1CN([C@@H](C)CO)C(=O)c2cc(NC(=O)Cn3cnnn3)ccc2O[C@H]1CN(C)Cc1ccc(Oc2ccccc2)cc1, the activation is reported as 6.68% (inactive). With CCOC(=O)C1CCCN(C(=O)c2cc(S(=O)(=O)N(C)C)ccc2N2CCCC2)C1 (stereo not drawn) the activation was 0.51% (inactive). In the case of C[C@H](CO)N1C[C@H](C)[C@H](CN(C)Cc2ccc3c(c2)OCO3)Oc2ccc(NC(=O)Cc3cn(C)c4ccccc34)cc2C1=O, the activation is reported as 0.14% (inactive). With CC(C)NC(=O)N(C)C[C@@H]1Oc2ccc(NC(=O)Cc3cn(C)c4ccccc34)cc2C(=O)N([C@H](C)CO)C[C@H]1C the activation was 0.047% (inactive). With Cc1cc(C(=O)Nc2ccc(Cl)cc2)n(-c2ccccc2)n1 the activation was 0.412% (inactive). With CCC(=O)Oc1cccc(C(=O)Nc2cccc(NC(=O)c3ccco3)c2)c1 the activation was -0.083% (inactive). With C[C@H]1CN([C@@H](C)CO)C(=O)c2cccc(NC(=O)c3ccncc3)c2O[C@H]1CN(C)Cc1ccc(C(=O)Nc2ccccc2N)cc1 the activation was 0.016% (inactive). For COc1ccc(S(=O)(=O)Nc2ccc3c(c2)C(=O)N([C@@H](C)CO)C[C@H](C)[C@@H](CN(C)C(=O)Nc2cccc4ccccc24)O3)cc1, the activation was -0.208% (inactive).

Same assay, conditions: HUVEC E-selectin immunostaining, at 21 µM (top of the series), percent of TNF-alpha response over vehicle
In the case of CC(C)NC(=O)N(C)C[C@H]1Oc2ccc(NC(=O)CCN3CCOCC3)cc2C(=O)N([C@H](C)CO)C[C@@H]1C, the activation is reported as 0.008% (inactive). With C[C@@H]1CN([C@H](C)CO)C(=O)Cc2cc(NC(=O)Cc3cn(C)c4ccccc34)ccc2O[C@H]1CN(C)Cc1ccc(C(F)(F)F)cc1 the activation was 14% (inactive). For C[C@H]1CN([C@@H](C)CO)C(=O)c2cc(NC(=O)Cn3cnnn3)ccc2O[C@H]1CN(C)Cc1ccc(Oc2ccccc2)cc1, the activation was 0.004% (inactive). For C[C@H](CO)N1C[C@H](C)[C@@H](CN(C)C(=O)NC2CCCCC2)Oc2ccc(NC(=O)Nc3ccc(C(F)(F)F)cc3)cc2C1=O, the activation was -0.177% (inactive). For COc1ccc(NC(=O)N(C)C[C@H]2Oc3ccc(NC(=O)Cc4cn(C)c5ccccc45)cc3C(=O)N([C@H](C)CO)C[C@@H]2C)cc1, the activation was 7.04% (inactive). For COc1ccc(CN(C)C[C@H]2Oc3ccc(NC(=O)Nc4c(C)noc4C)cc3C(=O)N([C@@H](C)CO)C[C@H]2C)cc1, the activation was 0.014% (inactive). For C[C@H]1CN([C@@H](C)CO)C(=O)Cc2cc(NC(=O)CCCCCC(=O)Nc3ccccc3N)ccc2O[C@H]1CN(C)Cc1ccc(Cl)c(Cl)c1, the activation was 5.06% (inactive).
